Assay results reported in patent publication US12686788B2, “Coating compositions having covalently bound ultraviolet absorbers” (BASF SE, priority 2017, dated 2026).

Legend:
Format in all cases: physicochemical
[1] = Percent transmission of clear coats on fused quartz plates (UV-vis); conditions: clear coat, 2.0 mils dry film on fused quartz; 2.5 weight percent UVA actives where present; with HALS 2
Procedure: Example 29. Percent Transmission Data of the Inventive Clear Coats—Clear coats were prepared of Instant Example 23 and were applied to fused quartz plates at a dry film thickness of 2.0 mils. The absorbance at various wavelengths was measured using a UV-vis spectrophotometer and the absorbance readings were converted to percent transmission (% T) at various wavelengths. In formulations where the UV absorber (UVA) was present, the concentration was 2.5 weight percent UVA actives relative to total resin solids

[2] = Multilayered coated panels, accelerated weathering: 20 degree gloss retention; conditions: after 3536 hours Xenon Arc accelerated weathering (SAE J2527); UV absorber 2.5 wt % in 2-part polyurethane clear top coat on white base coat
Procedure: (§1) Example 10. Stabilized 2-Part Solvent-borne Polyurethane Glossy Clear Top Coat. A glossy stabilized clear top coat was prepared of the formulation below. The UV absorbers were added to the formulation at 2.5 wt % relative to total resin solids.
(§2) Example 11. Stabilized 2-Part Solvent-borne Polyurethane Glossy Clear Top Coat. A glossy stabilized clear top coat was prepared of the formulation below. The UV absorber was added at 2.5 wt % relative to total resin solids, and the hindered amine light stabilizer (HALS) was added at 1.5 wt % relative to total resin solids. The HALS was a mixture of bis (1,2,2,6,6-pentamethyl-4-piperidyl) sebacate and methyl-1,2,2,6,6-pentamethyl-4-piperidyl sebacate (“HALS 1”); bis(1-octyloxy-2,2,6,6-tetramethylpiperidin-4-yl) sebacate (“HALS 2”); or 2,4-bis[(1-cyclohexyloxy-2,2,6,6-tetramethylpiperidin-4-yl)butylamino]-6-(2-hydroxyethylamino-s-triazine (“HALS 3”).
Example 12. Multilayered Coated Panel Preparation. Aluminum test panels from ACT Test Panels LLC were purchased having a white base coat (coil coat) and no clear top coat. The panels were cut to a size of about 3 inches by 6 inches. […] Initial CIE Lab color values, 20 degree gloss, and 60 degree gloss were measured. […]

[3] = Multilayered coated panels, accelerated weathering: color change (ΔE); conditions: after 6000 hours Xenon Arc accelerated weathering (SAE J2527); UV absorber 2.5 wt % in 2-part polyurethane clear top coat on white base coat
Procedure: as §1, §2
Example 12. Multilayered Coated Panel Preparation. Aluminum test panels from ACT Test Panels LLC were purchased having a white base coat (coil coat) and no clear top coat. The panels were cut to a size of about 3 inches by 6 inches. The stabilized top coats of Examples 10 and 11 were applied to the painted test panels using draw down bars to obtain clear coat thicknesses of either 2 mils or 3 mils, wherein 1 mil is equal to 0.0254 mm or 25.4 microns. The panels were allowed to air dry for 2 days followed by oven curing at 60° C. for 60 minutes. Initial CIE Lab color values, 20 degree gloss, and 60 degree gloss were measured.
Example 14. Multilayered Coated Panels, Accelerated Weathering. […]
Initial color measurements were taken using the above parameters. The L, a, and b values were calculated using the CIE system from the reflectance values. ΔE was calculated from the L, a, and b values. Subsequent measurements were taken at specified intervals. ΔL, a, and b values were the difference between the initial values and the values at each interval. ΔE was calculated as follows: [(ΔL)^2+(Δa)^2+(Δb)^2][…]=ΔE. […]

[4] = UV absorber solubility in UV curable coating composition (Example 8); conditions: approximate maximum concentration with no sign of crystallization; coating similar to Pourreau, RadTech Report 2004, Table 5
Procedure: Example 8. UV Absorber Solubility in UV Curable Coating Compositions. To measure this solubility, a number of structurally different UV absorbers were added to a typical UV curable coating composition similar to that as described by D. B. Pourreau “UV-Curable Acrylic Urethane Clearcoats for Automotive Applications,” RadTech Report, November/December, 2004, Table 5, p. 66. The test UV absorber was added to the UV curable coating composition at various concentrations. The resulting solution was placed into individual containers and sealed. Solubility was then evaluated based upon observed crystallization in the solvent. Observations started after several hours and then continued over a period of several weeks.
The solubility values given in Table 1, below, are approximate maximum concentrations where no sign of subsequent crystallization was evident. Solubilities are reported in weight percent of total UV absorber added to UV curable coating formulation. From the data in Table 1, it is clear that the inventive triazine UV absorbers are considerably more soluble in UV curable coating formulations than other triazine UV absorbers of the prior art. The use of many UV absorbers in coatings has been limited by solubility and compatibility of some UV absorber compounds. […]

[5] = UV absorber solubility in UV curable coating composition (Example 9); conditions: approximate maximum concentration with no sign of crystallization; coating similar to Pourreau, RadTech Report 2004, Table 6
Procedure: Example 9. UV Absorber Solubility in UV Curable Coating Compositions. To measure this solubility, a number of structurally different UV absorbers were added to a typical UV curable coating composition similar to that as described by D. B. Pourreau “UV-Curable Acrylic Urethane Clearcoats for Automotive Applications,” RadTech Report, November/December, 2004, Table 6, p. 68. The test UV absorber was added to the UV curable coating composition at various concentrations. The resulting solution was placed into individual containers and sealed. Solubility was then evaluated based upon observed crystallization in the solvent. Observations were initiated after several hours and continued over a period of several weeks.
The solubility values given in Table 2, below, are approximate maximum concentrations where no sign of subsequent crystallization is evident. Solubilities are reported in weight percent of total UV absorber added to UV curable coating formulation. From the data, it is clear that the instant triazine UV absorbers are considerably more soluble in UV curable coating formulations compared to other, triazine UV absorbers. The use of many UV absorbers in coatings has been limited in the past by the limited solubility and compatibility of some UV absorber compounds.

Molecule	% T at 325 nm [1] [%]	% T at 350 nm [1] [%]	% T at 375 nm [1] [%]	20 degree gloss retention [2] [%]	Delta E [3]	Solubility in UV Curable Coating [4] [wt %]	Solubility in UV Curable Coating [5] [wt %]
2-[4,6-bis(2,4-dimethylphenyl)-1,3,5-triazin-2-yl]-5-[2-hydroxy-3-(2-methylbutoxy)propoxy]phenol and regioisomer [Example 3, reference compound]	0.04	0.10	36.79				
CC(C)CCCC(C)OC(=O)C(C)Oc1ccc(-c2nc(-c3ccc(-c4ccccc4)cc3)nc(-c3ccc(-c4ccccc4)cc3)n2)c(O)c1 (centres unmarked) [Example 4, 2-Isooctyl 2-[4-[4,6-bis(4-phenylphenyl)-1,3,5-triazin-2-yl]-3-hydroxy-phenoxy]propanoate]				78.8	3.78	~0	
CC(C)(C)CCCCCC(=O)OCC(COc1ccc(-c2nc(-c3ccc(-c4ccccc4)cc3)nc(-c3ccc(-c4ccccc4)cc3)n2)c(O)c1)OC(=O)NCCCCCCNC(=O)N(CCCCCCN=C=O)C(=O)NCCCCCCNC(=O)OC(COC(=O)CCCCCC(C)(C)C)COc1ccc(-c2nc(-c3ccc(-c4ccccc4)cc3)nc(-c3ccc(-c4ccccc4)cc3)n2)c(O)c1 (centres unmarked) [Example 17, [3-[4-[4,6-bis(4-phenylphenyl)-1,3,5-triazin-2-yl]-3-hydroxy-phenoxy]-2-[6-[[6-[[1-[[4-[4,6-bis(4-phenylphenyl)-1,3,5-triazin-2-yl]-3-hydroxy-phenoxy]methyl]-2-(neodecanoyl)oxy-ethoxy]carbonylamino]hexylcarbamoyl-(6-isocyanatohexyl)-carbamoyl]amino]hexylcarbamoyloxy]propyl] neodecanoate]	0.02	0.09	25.29				
CCCCC(CC)COc1ccc(-c2nc(-c3ccc(-c4ccccc4)cc3)nc(-c3ccc(-c4ccccc4)cc3)n2)c(O)c1 (centres unmarked) [Example 5, 2-[4,6-Bis(4-phenylphenyl)-1,3,5-triazin-2-yl]-5-(2-ethylhexoxy)phenol, reference compound]					2.79		~2.4
CCCCCC(CC)OC(=O)N(CCCCCCN=C=O)C(=O)NCCCCCCNC(=O)OC(COC(=O)CCCCCC(C)(C)C)COc1ccc(-c2nc(-c3ccc(-c4ccccc4)cc3)nc(-c3ccc(-c4ccccc4)cc3)n2)c(O)c1 (centres unmarked) [Example 19, [3-[4-[4,6-bis(4-phenylphenyl)-1,3,5-triazin-2-yl]-3-hydroxy-phenoxy]-2-[6-[[1-ethylhexoxycarbonyl(6-isocyanatohexyl)carbamoyl]amino]hexylcarbamoyloxy]propyl] neodecanoate]	0.02	0.10	27.18				
[3-[4-[4,6-bis(4-phenylphenyl)-1,3,5-triazin-2-yl]-3-hydroxy-phenoxy]-2-hydroxy-propyl] neo-decanoate (“UVA-3”) and [2-[4-[4,6-bis(4-phenylphenyl)-1,3,5-triazin-2-yl]-3-hydroxy-phenoxy]-3-hydroxy-propyl] neo-decanoate (“UVA-4”) [Example 2]					1.89	~6.4	~26
CC(C)(C)CCCCCC(=O)OCC(COc1ccc(-c2nc(-c3ccc(-c4ccccc4)cc3)nc(-c3ccc(-c4ccccc4)cc3)n2)c(O)c1)OC(=O)NCCCCCCn1c(=O)n(CCCCCCN=C=O)c(=O)n(CCCCCCN=C=O)c1=O (centres unmarked) [Example 18, [2-[6-[3,5-bis(6-isocyanatohexyl)-2,4,6-trioxo-1,3,5-triazinan-1-yl]hexylcarbamoyloxy]-3-[4-[4,6-bis(4-phenylphenyl)-1,3,5-triazin-2-yl]-3-hydroxy-phenoxy]propyl] neodecanoate]	0.02	0.13	31.98				
CCCCCCCCON1C(C)(C)CC(OC(=O)CCCCCCCCC(=O)OC2CC(C)(C)N(OCCCCCCCC)C(C)(C)C2)CC1(C)C [HALS 2, bis(1-octyloxy-2,2,6,6-tetramethylpiperidin-4-yl) sebacate, reference compound]	84.39	92.31	93.38				
CC(C)(C)CCCCCC(=O)OCC(COc1ccc(-c2nc(-c3ccc(-c4ccccc4)cc3)nc(-c3ccc(-c4ccccc4)cc3)n2)c(O)c1)OC(=O)NCCCCCNC(=O)N(CCCCCCN=C=O)C(=O)NCCCCCCN=C=O (centres unmarked) [Example 16, [3-[4-[4,6-bis(4-phenylphenyl)-1,3,5-triazin-2-yl]-3-hydroxy-phenoxy]-2-[5-[[6-isocyanatohexyl(6-isocyanatohexylcarbamoyl)carbamoyl]amino]pentyl-carbamoyloxy]propyl] neodecanoate]	0.03	0.11	33.86				
